pIC50: −log10 of the molar value.
Target: ATX (human His-tagged) (Homo sapiens (Human), UniProt Q13822)
Test: Human ATX enzyme inhibition assay (fluorescence quenching, MR121 substrate)
Format: biochemical
Details: MR121 substrate 1 μM, ATX 30 nM final, 30° C.
Method: Human ATX Enzyme Inhibition Assay
ATX inhibition was measured by a fluorescence quenching assay using a specifically labeled substrate analogue (MR121 substrate). To obtain this MR121 substrate, BOC and TBS protected 6-amino-hexanoic acid (R)-3-({2-[3-(2-{2-[2-(2-amino-ethoxy)-ethoxy]-ethoxy}-ethoxy)-propionylamino]-ethoxy}-hydroxy-phosphoryloxy)-2-hydroxy-propyl ester (Ferguson et al., Org Lett 2006, 8 (10), 2023) was labeled with MR121 fluorophore (CAS 185308-24-1, 1-(3-carboxypropyl)-11-ethyl-1,2,3,4,8,9,10,11-octahydro-dipyrido[3,2-b:2′,3′-i]phenoxazin-13-ium) on the free amine of the ethanolamine side and then, after deprotection, subsequently with tryptophan on the side of the aminohexanoic acid. Assay working solutions were made as follows: Assay buffer (50 mM Tris-HCl, 140 mM NaCl, 5 mM KCl, 1 mM CaCl2, 1 mM MgCl2, 0.01% Triton-X-100, pH 8.0; ATX solution: ATX (human His-tagged) stock solution (1.08 mg/mL in 20 mM bicine, pH 8.5, 0.15 M NaCl, 10% glycerol, 0.3% CHAPS, 0.02% NaN3), diluted to 1.4-2.5× final concentration in assay buffer; MR121 substrate solution: MR121 substrate stock solution (800 μM MR121 substrate in DMSO), diluted to 2-5× final concentration in assay buffer. Test compounds (10 mM stock in DMSO, 8 μL) were obtained in 384 well sample plates (Corning Costar #3655) and diluted with 8 μL DMSO. Row-wise serial dilutions were made by transferring 8 μL cpd solution to the next row up to row O. The compound and control solutions were mixed five times and 2 μL were transferred to 384 well assay plates (Corning Costar #3702). Then, 15 μL of 41.7 nM ATX solution was added (30 nM final concentration), mixed five times and then incubated for 15 minutes at 30° C. 10 μL of MR121 substrate solution was added (1 μM final concentration), mixed 30 times and then incubated for 15 minutes at 30° C.

Structure (SMILES)	pIC50
NS(=O)(=O)c1ccc(C(=O)N2C[C@H]3CCN(C(=O)/C=C/c4ccc(OC(F)(F)F)cc4)CC[C@H]3C2)cc1 [Example 1.10, 4-{(3aS,8aR)-6-[(E)-3-(4-trifluoromethoxy-phenyl)-acryloyl]-octahydro-pyrrolo[3,4-d]azepine-2-carbonyl}-benzenesulfonamide]	8.70
NS(=O)(=O)c1ccc(C(=O)N2C[C@H]3CN(C(=O)OCc4ccc(OC(F)(F)F)cc4)C[C@@H]3C2)cc1F [Example 1.11, (3aS,6aS)-5-(3-fluoro-4-sulfamoyl-benzoyl)-hexahydro-pyrrolo[3,4-c]pyrrole-2-carboxylic acid 4-trifluoromethoxy-benzyl ester]	9.00
O=C(OCc1ccc(OC(F)(F)F)cc1)N1C[C@@H]2CN(C(=O)c3ccc(=O)[nH]c3)C[C@H]2C1 [Example 1.12, (3aS,6aS)-5-(6-oxo-1,6-dihydro-pyridine-3-carbonyl)-hexahydro-pyrrolo[3,4-c]pyrrole-2-carboxylic acid 4-trifluoromethoxy-benzyl ester]	6.36
NS(=O)(=O)c1ccc(C(=O)N2C[C@H]3CN(C(=O)OCc4ccc(OC(F)(F)F)cc4)C[C@@H]3C2)nc1 [Example 1.13, (3aS,6aS)-5-(5-sulfamoyl-pyridine-2-carbonyl)-hexahydro-pyrrolo[3,4-c]pyrrole-2-carboxylic acid 4-trifluoromethoxy-benzyl ester]	9.00
Cn1cc(S(N)(=O)=O)cc1C(=O)N1C[C@H]2CN(C(=O)OCc3ccc(OC(F)(F)F)cc3)C[C@@H]2C1 [Example 1.14, (3 aS,6aS)-5-(1-methyl-4-sulfamoyl-1H-pyrrole-2-carbonyl)-hexahydro-pyrrolo[3,4-c]pyrrole-2-carboxylic acid 4-trifluoromethoxy-benzyl ester]	7.19
Cn1c(C(=O)N2C[C@H]3CN(C(=O)OCc4ccc(OC(F)(F)F)cc4)C[C@@H]3C2)ccc1S(N)(=O)=O [Example 1.15, (3 aS,6aS)-5-(1-methyl-5-sulfamoyl-1H-pyrrole-2-carbonyl)-hexahydro-pyrrolo[3,4-c]pyrrole-2-carboxylic acid 4-trifluoromethoxy-benzyl ester]	7.23
O=C(OCc1ccc(OC(F)(F)F)cc1)N1C[C@@H]2CN(C(=O)c3ccc(O)cn3)C[C@H]2C1 [Example 1.17, (3aS,6aS)-5-(5-hydroxy-pyridine-2-carbonyl)-hexahydro-pyrrolo[3,4-c]pyrrole-2-carboxylic acid 4-trifluoromethoxy benzyl ester]	7.60
O=C(OCc1ccc(OC(F)(F)F)cc1)N1C[C@@H]2CN(C(=O)c3ccc(O)cc3)C[C@H]2C1 [Example 1.18, (3aS,6aS)-5-(4-hydroxy-benzoyl)-hexahydro-pyrrolo[3,4-c]pyrrole-2-carboxylic acid 4-trifluoromethoxy-benzyl ester]	7.89
NS(=O)(=O)c1ccc(C(=O)N2C[C@H]3CN(C(=O)OCc4ccc(OC(F)(F)F)cc4)C[C@@H]3C2)c(F)c1 [Example 1.19, (3 aS,6aS)-5-(2-fluoro-4-sulfamoyl-benzoyl)-hexahydro-pyrrolo[3,4-c]pyrrole-2-carboxylic acid 4-trifluoromethoxy-benzyl ester]	8.40
NS(=O)(=O)c1ccc(C(=O)N2C[C@H]3CN(C(=O)CCc4ccc(OC(F)(F)F)cc4)C[C@@H]3C2)cn1 [Example 1.20, 5-{(3 aR,6aR)-5-[3-(4-trifluoromethoxy-phenyl)-propionyl]-hexahydro-pyrrolo[3,4-c]pyrrole-2-carbonyl}-pyridine-2-sulfonic acid amide]	7.72
CCOc1cc(C(=O)N2C[C@@H]3CN(C(=O)c4ccc(S(N)(=O)=O)nc4)C[C@H]3C2)nc2ccccc12 [Example 1.21, 5-((3 aS,6aS)-5-(4-ethoxyquinoline-2-carbonyl)octahydropyrrolo[3,4-c]pyrrole-2-carbonyl)pyridine-2-sulfonamide]	6.93
CC(C)(C)C(=O)Nc1cc(C#N)ccc1COC(=O)N1C[C@@H]2CN(C(=O)c3ccc(S(N)(=O)=O)c(F)c3)C[C@H]2C1 [Example 1.22, (3aS,6aS)-5-(3-fluoro-4-sulfamoyl-benzoyl)-hexahydro-pyrrolo[3,4-c]pyrrole-2-carboxylic acid 4-cyano-2-(2,2-dimethyl-propionylamino)-benzyl ester]	8.15
CC(C)(C)C(=O)Nc1cc(C#N)ccc1COC(=O)N1C[C@@H]2CN(C(=O)c3ccc(S(N)(=O)=O)nc3)C[C@H]2C1 [Example 1.23, (3aS,6aS)-5-(6-sulfamoyl-pyridine-3-carbonyl)-hexahydro-pyrrolo[3,4-c]pyrrole-2-carboxylic acid 4-cyano-2-(2,2-dimethyl-propionylamino)-benzyl ester]	8.40
CC(C)(C)C(=O)Nc1cc(C#N)ccc1COC(=O)N1C[C@@H]2CN(C(=O)c3ccc(S(N)(=O)=O)cc3)C[C@H]2C1 [Example 1.24, (3aS,6aS)-5-(4-sulfamoyl-benzoyl)-hexahydro-pyrrolo[3,4-c]pyrrole-2-carboxylic acid 4-cyano-2-(2,2-dimethyl-propionylamino)-benzylester]	7.92
CC(C)(C)C(=O)Nc1cc(C#N)ccc1COC(=O)N1C[C@@H]2CN(C(=O)c3ccc(S(N)(=O)=O)cc3F)C[C@H]2C1 [Example 1.25, (3aS,6aS)-5-(2-fluoro-4-sulfamoyl-benzoyl)-hexahydro-pyrrolo[3,4-c]pyrrole-2-carboxylic acid 4-cyano-2-(2,2-dimethyl-propionylamino)-benzyl ester]	8.70
CC(C)(C)C(=O)Nc1cc(C#N)ccc1COC(=O)N1C[C@@H]2CN(C(=O)c3ccc(S(N)(=O)=O)cn3)C[C@H]2C1 [Example 1.26, (3aS,6aS)-5-(5-sulfamoyl-pyridine-2-carbonyl)-hexahydro-pyrrolo[3,4-c]pyrrole-2-carboxylic acid 4-cyano-2-(2,2-dimethyl-propionylamino)-benzyl ester]	8.00
CC(=O)Nc1ccc(C(=O)N2C[C@H]3CN(C(=O)OCc4cc(Cl)cc(Cl)c4)C[C@H]3C2)cc1 [Example 2, (3aR,6aS)-3,5-Dichlorobenzyl 5-(4-acetamidobenzoyl)hexahydropyrrolo[3,4-c]pyrrole-2(1H)-carboxylate]	6.47
CC(=O)Nc1ccc(C(=O)N2C[C@H]3CN(C(=O)OCc4cc(Cl)cc(Cl)c4)C[C@H]3C2)nc1 [Example 2.01, (3aR,6aS)-3,5-Dichlorobenzyl 5-(5-acetamidopicolinoyl)hexahydropyrrolo[3,4-c]pyrrole-2(1H)-carboxylate]	5.82
NS(=O)(=O)c1ccc(S(=O)(=O)N2C[C@H]3CN(C(=O)OCc4cc(Cl)cc(Cl)c4)C[C@H]3C2)cc1 [Example 3, (3aR,6aS)-3,5-Dichlorobenzyl 5-(4-sulfamoylphenylsulfonyl)hexahydropyrrolo[3,4-c]pyrrole-2(1H)-carboxylate]	7.51
O=C(OCc1cc(Cl)cc(Cl)c1)N1C[C@@H]2CN(C(=O)c3ccc(-c4nnn[nH]4)cc3)C[C@@H]2C1 [Example 4, (3aR,6aS)-3,5-Dichlorobenzyl 5-(4-(1H-tetrazol-5-yl)benzoyl)hexahydropyrrolo[3,4-c]pyrrole-2(1H)-carboxylate]	6.24
O=C(O)c1ccc(C(=O)N2C[C@H]3CN(C(=O)OCc4cc(Cl)cc(Cl)c4)C[C@H]3C2)cc1 [Example 5, 4-((3aR,6aS)-5-((3,5-Dichlorobenzyloxy)carbonyl)octahydropyrrolo[3,4-c]pyrrole-2-carbonyl)benzoic acid]	5.87
CS(=O)(=O)Nc1ccc(C(=O)N2C[C@H]3CN(C(=O)OCc4cc(Cl)cc(Cl)c4)C[C@H]3C2)nc1 [Example 6, (3aR,6aS)-3,5-Dichlorobenzyl 5-(5-(methylsulfonamido)picolinoyl)hexahydropyrrolo[3,4-c]pyrrole-2(1H)-carboxylate]	6.21
CS(=O)(=O)c1cc(Cl)cc(COC(=O)N2C[C@@H]3CN(C(=O)c4ccc(S(N)(=O)=O)cc4)C[C@H]3C2)c1 [Example 7, (3aS,6aS)-5-(4-Sulfamoyl-benzoyl)-hexahydro-pyrrolo[3,4-c]pyrrole-2-carboxylic acid 3-chloro-5-methanesulfonyl-benzyl ester]	7.84
NS(=O)(=O)c1ccc(C(=O)N2C[C@H]3CN(C(=O)OCc4ccc(OC(F)(F)F)cc4F)C[C@H]3C2)cc1 [Example 7.01, (3aR,6aS)-5-(4-sulfamoyl-benzoyl)-hexahydro-pyrrolo[3,4-c]pyrrole-2-carboxylic acid 2-fluoro-4-trifluoromethoxy-benzyl ester]	9.00
